In US7855166B2, “Sulfonylamino(thio)carbonyl compounds” (Bayer Cropscience GmbH, priority 2005, dated 2010):

Tests used:
[1] = system: weed plants such as Sinapis alba, Echinochloa crus-galli, Lolium multiflorum, Chrysanthemum segetum, Setaria viridis, Abutilon theophrasti, Amaranthus …; test: Post-emergence effect on weeds (greenhouse pot test, visual scoring); assay type: in vivo; details: applied post-emergence (three-leaf stage) at a rate of 0.3 kg or less of active substance per hectare; scored after about 3 to 4 weeks in comparison to untreated controls
[2] = system: weed plants such as Sinapis alba, Chrysanthemum segetum, Avena sativa, Stellaria media, Echinochloa crus-galli, Lolium multiflorum, Setaria viridis, Abutilon …; test: Pre-emergence effect on weeds (greenhouse pot test, visual scoring); assay type: in vivo; details: applied pre-emergence at a rate of 0.3 kg or less of active substance per hectare; scored after 3 to 4 weeks in comparison to untreated controls

Structure (SMILES) | herbicidal action against weed plants (effect scored visually) [1] | herbicidal action against weed plants (visual scoring of plant damage or emergence damage) [2]
CCCCOc1cccc(I)c1S(=O)(=O)NC(=O)n1nc(OCCC)n(C2CC2)c1=O [Compound 1.280] | very good herbicidal action | very good herbidical action
CCCOc1nn(C(=O)NS(=O)(=O)c2c(I)cccc2OC(F)F)c(=O)n1C [Compound 1.464] | very good herbicidal action | very good herbidical action
CCOc1nn(C(=O)NS(=O)(=O)c2cc(C(F)(F)F)ccc2I)c(=O)n1C1CC1 [Compound 1.840] | very good herbicidal action | very good herbidical action
COc1nn(C(=O)NS(=O)(=O)c2c(F)cccc2I)c(=O)n1C [Compound 1.021] | very good herbicidal action | very good herbidical action
CCCOc1nn(C(=O)NS(=O)(=O)c2ccc(CCC)cc2I)c(=O)n1C [Compound 1.878] | very good herbicidal action | very good herbidical action
CCCOc1nn(C(=O)NS(=O)(=O)c2c(I)cccc2OS(C)(=O)=O)c(=O)n1C1CC1 [Compound 1.718] | very good herbicidal action | very good herbidical action
CC(C)Oc1nn(C(=O)NS(=O)(=O)c2cccc(Cl)c2I)c(=O)n1C [Compound 1.831] | very good herbicidal action | very good herbidical action
CCCOc1nn(C(=O)NS(=O)(=O)c2c(Cl)cc(C(F)(F)F)cc2I)c(=O)n1C1CC1 [Compound 1.848] | very good herbicidal action | very good herbidical action
CCOc1nn(C(=O)NS(=O)(=O)c2c(I)cccc2OC(C)C)c(=O)n1C [Compound 1.254] | very good herbicidal action | very good herbidical action
CCCOc1nn(C(=O)NS(=O)(=O)c2cc(C)c(C)cc2I)c(=O)n1C1CC1 [Compound 1.868] | very good herbicidal action | very good herbidical action
CC(C)Oc1nn(C(=O)NS(=O)(=O)c2c(F)cccc2I)c(=O)n1C [Compound 1.024] | very good herbicidal action | very good herbidical action
CCCOc1cccc(I)c1S(=O)(=O)NC(=O)n1nc(SCC)n(C)c1=O [Compound 1.237] | very good herbicidal action | very good herbidical action
CC(C)Oc1nn(C(=O)NS(=O)(=O)c2cc(C(F)(F)F)ccc2I)c(=O)n1C [Compound 1.838] | very good herbicidal action | very good herbidical action
COc1nn(C(=O)NS(=O)(=O)c2cccc(Cl)c2I)c(=O)n1C [Compound 1.828] | very good herbicidal action | very good herbidical action
COc1nn(C(=O)NS(=O)(=O)c2cc(C(F)(F)F)ccc2I)c(=O)n1C [Compound 1.835] | very good herbicidal action | very good herbidical action
CCCOc1nn(C(=O)NS(=O)(=O)c2c(Cl)ccc(Cl)c2I)c(=O)n1C [Compound 1.851] | very good herbicidal action | very good herbidical action
CCCOc1nn(C(=O)NS(=O)(=O)c2ccc(F)cc2I)c(=O)n1C [Compound 1.824] | very good herbicidal action | very good herbidical action
COc1nn(C(=O)NS(=O)(=O)c2c(Cl)cc(C(F)(F)F)cc2I)c(=O)n1C1CC1 [Compound 1.846] | very good herbicidal action | very good herbidical action
CC(C)Oc1nn(C(=O)NS(=O)(=O)c2c(I)cccc2OS(=O)(=O)N(C)C)c(=O)n1C [Compound 1.752] | very good herbicidal action | very good herbidical action

Structure (SMILES) | herbicidal action against weed plants (effect scored visually) [1] | herbicidal action against weed plants (visual scoring of plant damage or emergence damage) [2]
CCCOc1nn(C(=O)NS(=O)(=O)c2ccc(C)c(F)c2I)c(=O)n1C [Compound 1.857] | very good herbicidal action | very good herbidical action
COc1nn(C(=O)NS(=O)(=O)c2c(I)cccc2OCC(F)(F)F)c(=O)n1C1CC1 [Compound 1.488] | very good herbicidal action | very good herbidical action
COc1nn(C(=O)NS(=O)(=O)c2cc(C)c(C)cc2I)c(=O)n1C1CC1 [Compound 1.866] | very good herbicidal action | very good herbidical action
CCCOc1cccc(I)c1S(=O)(=O)NC(=O)n1nc(OCCC)n(C)c1=O [Compound 1.235] | very good herbicidal action | very good herbidical action
CCCOc1nn(C(=O)NS(=O)(=O)c2ccc(Cl)cc2I)c(=O)n1C1CC1 [Compound 1.875] | very good herbicidal action | very good herbidical action
CCOc1nn(C(=O)NS(=O)(=O)c2c(I)cccc2OC)c(=O)n1C [Compound 1.194] | very good herbicidal action | very good herbidical action
CCOc1nn(C(=O)NS(=O)(=O)c2ccc(C)c(F)c2I)c(=O)n1C1CC1 [Compound 1.860] | very good herbicidal action | very good herbidical action
CCCOc1cccc(I)c1S(=O)(=O)NC(=O)n1nc(OCC)n(C2CC2)c1=O [Compound 1.241] | very good herbicidal action | very good herbidical action
CCCc1ccc(S(=O)(=O)NC(=O)n2nc(OCC)n(C3CC3)c2=O)c(I)c1 [Compound 1.881] | very good herbicidal action | very good herbidical action
CCCOc1cccc(I)c1S(=O)(=O)NC(=O)n1nc(OC(C)C)n(C)c1=O [Compound 1.236] | very good herbicidal action | very good herbidical action
CCCOc1nn(C(=O)NS(=O)(=O)c2c(F)cccc2I)c(=O)n1C [Compound 1.023] | very good herbicidal action | very good herbidical action
CCOc1nn(C(=O)NS(=O)(=O)c2c(I)cccc2OS(C)(=O)=O)c(=O)n1C1CC1 [Compound 1.717] | very good herbicidal action | very good herbidical action
CCOc1nn(C(=O)NS(=O)(=O)c2ccc(C(F)(F)F)cc2I)c(=O)n1C [Compound 1.890] | very good herbicidal action | very good herbidical action
COc1nn(C(=O)NS(=O)(=O)c2c(I)cccc2C(F)(F)F)c(=O)n1C [Compound 1.133] | very good herbicidal action | very good herbidical action
COc1nn(C(=O)NS(=O)(=O)c2ccc(C(F)(F)F)cc2I)c(=O)n1C [Compound 1.893] | very good herbicidal action | very good herbidical action
COc1nn(C(=O)NS(=O)(=O)c2c(I)cccc2OS(=O)(=O)N(C)C)c(=O)n1C1CC1 [Compound 1.754] | very good herbicidal action | very good herbidical action
COc1nn(C(=O)NS(=O)(=O)c2c(I)cccc2OCC(F)(F)C(F)(F)F)c(=O)n1C [Compound 1.544] | very good herbicidal action | very good herbidical action
CCC(C)Oc1cccc(I)c1S(=O)(=O)NC(=O)n1nc(OC)n(C)c1=O (stereo not shown) [Compound 1.281] | very good herbicidal action | very good herbidical action
COc1nn(C(=O)NS(=O)(=O)c2cc(C)c(C)cc2I)c(=O)n1C [Compound 1.862] | very good herbicidal action | very good herbidical action
